What was measured:
Type in all cases: biochemical
Btk = biological target: T1, Btk (Homo sapiens, UniProt Q06187); assay: Btk in vitro inhibitory activity (one of Method A TR-FRET, Method B electrophoretic mobility shift, Method C radiometric filter binding); conditions: wild-type Btk; read-out: Btk-WT IC50
T1 construct: purified from insect cells as a full-length construct containing a N-terminal 6X-His tag; His6 (N); made in house; host or cells: insect cells (Method C)
Procedure, shortened: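 Method A: TR-FRET with 0.5 nM Btk at [ATP]=Km, EDTA-quenched, 665/615 nm ratio; Ki(app) converted to IC50. Method B: 1 nM full-length His6 human BTK, 1 μM FAM peptide, pH 7.5, mobility-shift product/sum ratio, 12-point 4-parameter fit. Method C: radiometric filter binding, 8 nM His-tagged BTK, 0.2 mg/mL poly-Glu-Tyr.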

TEC = biological target: T2, TEC (Homo sapiens, UniProt P42680); assay: Inhibition of a panel of kinases (in vitro HotSpot kinase assay, 33P-ATP, 1 μM ATP); conditions: for TEC/Btk: ratio of TEC IC50 to Btk IC50 (selectivity); for IC50: HotSpot kinase assay, 1 μM ATP
T2 sequence (P42680 1-631): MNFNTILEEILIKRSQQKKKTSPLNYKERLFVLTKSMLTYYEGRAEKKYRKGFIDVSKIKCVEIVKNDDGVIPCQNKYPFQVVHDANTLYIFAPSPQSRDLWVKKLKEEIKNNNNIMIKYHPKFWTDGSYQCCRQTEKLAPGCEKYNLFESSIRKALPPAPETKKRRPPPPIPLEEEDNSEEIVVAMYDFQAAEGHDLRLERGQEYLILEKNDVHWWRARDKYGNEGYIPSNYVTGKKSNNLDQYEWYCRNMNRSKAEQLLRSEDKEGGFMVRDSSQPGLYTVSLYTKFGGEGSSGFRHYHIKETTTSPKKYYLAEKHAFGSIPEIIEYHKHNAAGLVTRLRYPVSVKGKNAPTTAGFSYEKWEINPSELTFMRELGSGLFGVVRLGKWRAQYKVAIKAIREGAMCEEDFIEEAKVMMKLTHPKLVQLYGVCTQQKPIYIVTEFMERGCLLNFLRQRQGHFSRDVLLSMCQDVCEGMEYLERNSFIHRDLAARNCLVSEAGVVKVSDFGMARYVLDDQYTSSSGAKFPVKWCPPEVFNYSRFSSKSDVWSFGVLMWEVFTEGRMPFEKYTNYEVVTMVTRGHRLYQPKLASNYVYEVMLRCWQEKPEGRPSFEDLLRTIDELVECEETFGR
Procedure, shortened: (§1)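 Purified kinase enzymes were incubated with an appropriate substrate and 33P-labelled ATP at 1 μM ATP. Inhibition was measured radiometrically from incorporation of the 33P label.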

panel of kinases = biological target: T3, panel of kinases (Homo sapiens, UniProt P51813); assay: Inhibition of a panel of kinases (in vitro HotSpot kinase assay, 33P-ATP, 1 μM ATP), other kinases; conditions: BMX wild-type, read-out: BMX-WT IC50
T3 sequence (P51813 1-675): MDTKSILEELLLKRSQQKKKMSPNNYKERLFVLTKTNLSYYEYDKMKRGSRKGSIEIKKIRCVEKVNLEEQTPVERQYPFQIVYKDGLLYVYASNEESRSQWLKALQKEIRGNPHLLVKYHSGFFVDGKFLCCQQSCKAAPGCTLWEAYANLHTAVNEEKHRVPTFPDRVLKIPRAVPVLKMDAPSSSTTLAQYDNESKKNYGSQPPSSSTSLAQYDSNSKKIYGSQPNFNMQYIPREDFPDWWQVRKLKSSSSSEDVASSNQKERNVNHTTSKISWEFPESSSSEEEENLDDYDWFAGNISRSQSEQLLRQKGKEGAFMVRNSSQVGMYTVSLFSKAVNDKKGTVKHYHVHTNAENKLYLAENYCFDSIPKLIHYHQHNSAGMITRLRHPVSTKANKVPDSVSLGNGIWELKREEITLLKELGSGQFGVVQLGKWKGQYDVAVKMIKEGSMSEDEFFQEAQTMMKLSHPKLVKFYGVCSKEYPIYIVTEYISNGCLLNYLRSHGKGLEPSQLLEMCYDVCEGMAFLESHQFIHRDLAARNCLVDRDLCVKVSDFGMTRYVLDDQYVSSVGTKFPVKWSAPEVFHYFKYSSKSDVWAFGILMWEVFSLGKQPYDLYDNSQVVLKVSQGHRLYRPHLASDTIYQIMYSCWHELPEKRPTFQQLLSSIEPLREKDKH
Procedure, shortened: as §1

T1 sequence (Q06187 whole entry): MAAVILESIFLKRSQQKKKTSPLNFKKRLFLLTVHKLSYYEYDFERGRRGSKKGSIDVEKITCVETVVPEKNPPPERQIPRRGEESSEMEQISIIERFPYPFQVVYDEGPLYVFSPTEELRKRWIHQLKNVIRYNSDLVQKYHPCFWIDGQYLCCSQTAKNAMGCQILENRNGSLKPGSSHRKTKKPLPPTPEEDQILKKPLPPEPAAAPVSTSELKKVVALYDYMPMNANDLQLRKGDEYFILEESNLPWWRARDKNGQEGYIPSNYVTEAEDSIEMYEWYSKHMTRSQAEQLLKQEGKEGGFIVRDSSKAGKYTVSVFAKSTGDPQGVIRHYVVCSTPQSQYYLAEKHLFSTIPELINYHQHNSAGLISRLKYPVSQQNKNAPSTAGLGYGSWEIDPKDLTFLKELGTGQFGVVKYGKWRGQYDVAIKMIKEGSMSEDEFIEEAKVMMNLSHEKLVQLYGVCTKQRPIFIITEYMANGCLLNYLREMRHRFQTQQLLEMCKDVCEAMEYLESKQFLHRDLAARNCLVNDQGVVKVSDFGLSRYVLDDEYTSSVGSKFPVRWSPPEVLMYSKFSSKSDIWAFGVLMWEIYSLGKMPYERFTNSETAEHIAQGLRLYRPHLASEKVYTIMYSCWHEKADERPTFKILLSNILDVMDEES

Row | IC50 (Btk) [nM] | TEC/Btk (TEC) | IC50 (panel of kinases) [nM] | IC50 (TEC) [nM] | Structure (SMILES)
1 | 254 | 39 | 6750 | – | CC1(C(=O)N2CC[C@@H](Nc3n[nH]c4nccc(-c5ccc(C6(NC(=O)c7noc(C(C)(C)C)n7)CC6)cc5)c34)C2)COC1 [Compound 30, (R)-5-(tert-butyl)-N-(1-(4-(3-((1-(3-methyloxetane-3-carbonyl)pyrrolidin-3-yl)amino)-1H-pyrazolo[3,4-b]pyridin-4-yl)phenyl)cyclopropyl)-1,2,4-oxadiazole-3-carboxamide]
2 | > 10000 | – | 1710 | 6410 | O=C(NCc1ccc(-c2ccnc3[nH]nc(N[C@@H]4CCNC4)c23)cc1F)c1ccccc1 [Compound 31, (R)—N-(2-fluoro-4-(3-(pyrrolidin-3-ylamino)-1H-pyrazolo[3,4-b]pyridin-4-yl)benzyl)benzamide]
3 | 328 | 17 | 1410 | 5440 | Cc1ccc(C(=O)NCc2ccc(-c3ccnc4[nH]nc(N[C@@H]5CCNC5)c34)cc2F)cc1 [Compound 32, (R)—N-(2-fluoro-4-(3-(pyrrolidin-3-ylamino)-1H-pyrazolo[3,4-b]pyridin-4-yl)benzyl)-4-methylbenzamide]
4 | 15 | 14 | 25 | 217 | C=CC(=O)N1CC[C@@H](Nc2n[nH]c3nccc(-c4ccc(CNC(=O)c5ccccc5)c(F)c4)c23)C1 [Compound 33, (R)—N-(4-(3-((1-acryloylpyrrolidin-3-yl)amino)-1H-pyrazolo[3,4-b]pyridin-4-yl)-2-fluorobenzyl)benzamide]
5 | 1.76 | 31 | 16 | 55 | C=CC(=O)N1CC[C@@H](Nc2n[nH]c3nccc(-c4ccc(CNC(=O)c5ccc(C)cc5)c(F)c4)c23)C1 [Compound 34, (R)—N-(4-(3-((1-acryloylpyrrolidin-3-yl)amino)-1H-pyrazolo[3,4-b]pyridin-4-yl)-2-fluorobenzyl)-4-methylbenzamide]
6 | 505 | 14 | 8480 | 7000 | O=C(NCc1ccc(-c2ccnc3[nH]nc(N[C@@H]4CCNC4)c23)cc1F)c1ccc(C2CC2)cc1 [Compound 35, 4-cyclopropyl-N-{[2-fluoro-4-(3-{[(3R)-pyrrolidin-3-yl]amino}-1H-pyrazolo[3,4-b]pyridin-4-yl)phenyl]methyl}benzamide]
7 | 433 | >100 | > 10000 | > 10000 | CC(C)(C)c1ccc2c(c1)CCN(Cc1ccc(-c3ccnc4[nH]nc(N[C@@H]5CCNC5)c34)cc1F)C2=O [Compound 36, 6-tert-butyl-2-{[2-fluoro-4-(3-{[(3R)-pyrrolidin-3-yl]amino}-1H-pyrazolo[3,4-b]pyridin-4-yl)phenyl]methyl}-1,2,3,4-tetrahydroisoquinolin-1-one]
8 | 53.9 | >100 | 8820 | > 10000 | CC(C)(C)c1ccc(C(=O)NCc2ccc(-c3ccnc4[nH]nc(N[C@H]5CCNC5)c34)cc2F)cc1 [Compound 37, 4-tert-butyl-N-{[2-fluoro-4-(3-{[(3S)-pyrrolidin-3-yl]amino}-1H-pyrazolo[3,4-b]pyridin-4-yl)phenyl]methyl}benzamide]
9 | > 10000 | – | > 10000 | > 10000 | CC(C)(C)c1ccc2c(c1)CCN(Cc1ccc(-c3ccnc4[nH]nc(N[C@H]5CC[C@H](O)CC5)c34)cc1F)C2=O [Compound 38, 6-tert-butyl-2-{[2-fluoro-4-(3-{[(11r,4r)-4-hydroxycyclohexyl]amino}-1H-pyrazolo[3,4-b]pyridin-4-yl)phenyl]methyl}-1,2,3,4-tetrahydroisoquinolin-1-one]
10 | 63.6 | 74 | 3820 | 4680 | CC(C)(C)c1ncc(C(=O)NCc2ccc(-c3ccnc4[nH]nc(N[C@H]5CC[C@H](O)CC5)c34)cc2F)o1 [Compound 39, 2-tert-butyl-N-{[2-fluoro-4-(3-{[(1r,4r)-4-hydroxycyclohexyl]amino}-1H-pyrazolo[3,4-b]pyridin-4-yl)phenyl]methyl}-1,3-oxazole-5-carboxamide]
11 | 1.27 | 37 | 54 | 47 | C=CC(=O)N1CC[C@@H](Nc2n[nH]c3nccc(-c4ccc(CNC(=O)c5ccc(C6CC6)cc5)c(F)c4)c23)C1 [Compound 40, 4-cyclopropyl-N-{[2-fluoro-4-(3-{[(3R)-1-(prop-2-enoyl)pyrrolidin-3-yl]amino}-1H-pyrazolo[3,4-b]pyridin-4-yl)phenyl]methyl}benzamide]
12 | 251 | 12 | > 10000 | 3010 | CC1(C(=O)N2CC[C@@H](Nc3n[nH]c4nccc(-c5ccc(CNC(=O)c6ccc(C7CC7)cc6)c(F)c5)c34)C2)COC1 [Compound 41, 4-cyclopropyl-N-{[2-fluoro-4-(3-{[(3R)-1-(3-methyloxetane-3-carbonyl)pyrrolidin-3-yl]amino}-1H-pyrazolo[3,4-b]pyridin-4-yl)phenyl]methyl}benzamide]
13 | > 10000 | – | > 10000 | > 10000 | CC(C)(C)c1ccc(C(=O)Nc2ccc(-c3ccnc4[nH]nc(N[C@@H]5CCNC5)c34)cc2F)cc1 [Compound 42, 4-tert-butyl-N-[2-fluoro-4-(3-{[(3R)-pyrrolidin-3-yl]amino}-1H-pyrazolo[3,4-b]pyridin-4-yl)phenyl]benzamide]
14 | 2.76 | 217 | 394 | 599 | C=CC(=O)N1CC[C@@H](Nc2n[nH]c3nccc(-c4ccc(CN5CCc6cc(C(C)(C)C)ccc6C5=O)c(F)c4)c23)C1 [Compound 43, 6-tert-butyl-2-{[2-fluoro-4-(3-{[(3R)-1-(prop-2-enoyl)pyrrolidin-3-yl]amino}-1H-pyrazolo[3,4-b]pyridin-4-yl)phenyl]methyl}-1,2,3,4-tetrahydroisoquinolin-1-one]
15 | 68.2 | 116 | 5390 | 7940 | C=CC(=O)N1CC[C@H](Nc2n[nH]c3nccc(-c4ccc(CNC(=O)c5ccc(C(C)(C)C)cc5)c(F)c4)c23)C1 [Compound 44, (S)—N-(4-(3-((1-acryloylpyrrolidin-3-yl)amino)-1H-pyrazolo[3,4-b]pyridin-4-yl)-2-fluorobenzyl)-4-(tert-butyl)benzamide]
16 | > 10000 | >100 | 449 | 1920 | C=CC(=O)N1CC[C@@H](Nc2n[nH]c3nccc(-c4ccc(NC(=O)c5ccc(C(C)(C)C)cc5)c(F)c4)c23)C1 [Compound 45]
17 | 8.55 | 21 | 91 | 182 | C=CC(=O)N1CC[C@@H](Nc2n[nH]c3nccc(-c4ccc(CNC(=O)c5cccc(C(C)(C)C)c5)c(F)c4)c23)C1 [Compound 46, (R)—N-(4-(3-((1-acryloylpyrrolidin-3-yl)amino)-1H-pyrazolo[3,4-b]pyridin-4-yl)-2-fluorobenzyl)-3-(tert-butyl)benzamide]
18 | 682 | 4 | 1830 | 2940 | C=CC(=O)N1CC[C@@H](Nc2n[nH]c3nccc(-c4ccc(CNC(=O)c5ccc(C(=C)C)cc5)c(F)c4)c23)C1 [Compound 47, (R)—N-(4-(3-((1-acryloylpyrrolidin-3-yl)amino)-1H-pyrazolo[3,4-b]pyridin-4-yl)-2-fluorobenzyl)-4-(prop-1-en-2-yl)benzamide]

Reference: patent US20180194762A1 (Pharmacyclics LLC, priority 2017, published 2018)
